According to patent US20050101595A1, “N-containing cycloalkyl-substituted amino-thiazole derivatives and pharmaceutical compositions for inhibiting cell proliferation and methods for their use” (PFIZER INC., priority 2003, published 2005):
pIC50, pKi: −log10 of the molar value. Where a name gives a salt, the structure may show the parent alone. Read-outs that look alike come from different tables or passages of the source.

Assays:
[1] = target: CDK2/Cyclin A (Homo sapiens, UniProt P24941); experiment: Inhibition of CDK2/Cyclin A Retinoblastoma Kinase Activity; type: biochemical; details: for CDK2 % Inhibition At 0.03 μM: Table 2; for pKi: apparent Ki, CDK2/proteolyzed cyclin A, Rb fragment substrate, 25 μM ATP
How it was run: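 CDK2 (10 or 19 nM), insect-cell expressed, gel-filtration purified with truncated cyclin A; Rb fragment substrate; 25 μM ATP; 10 mM HEPES pH 7.4, 10 mM MgCl2; 30° C, 60 or 75 min; EDTA stop; phosphocellulose/nitrocellulose capture, phosphorimager. % inhibition vs DMSO control, no-enzyme background subtracted.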

[2] = target: human CDK4 and genetically truncated (1-264) cyclin D3 (Homo sapiens, UniProt P11802); experiment: Inhibition of CDK4/Cyclin D Retinoblastoma Kinase Activity; type: biochemical; details: for pKi: apparent Ki, CDK4/truncated cyclin D3, Rb fragment substrate, 25 μM ATP
Chain of human CDK4 and genetically truncated (1-264) cyclin D3 (P11802 whole entry, the tested form may be a part): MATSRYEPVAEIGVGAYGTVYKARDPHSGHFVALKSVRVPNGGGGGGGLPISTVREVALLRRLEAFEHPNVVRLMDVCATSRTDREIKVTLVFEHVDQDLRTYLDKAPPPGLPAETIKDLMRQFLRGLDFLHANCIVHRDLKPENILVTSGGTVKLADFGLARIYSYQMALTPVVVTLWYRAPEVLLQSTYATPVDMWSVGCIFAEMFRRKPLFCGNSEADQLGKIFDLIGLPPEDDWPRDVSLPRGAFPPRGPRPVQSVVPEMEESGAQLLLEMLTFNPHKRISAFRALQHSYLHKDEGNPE
Chain of human CDK4 and genetically truncated (1-264) cyclin D3 (P30281 1-264 partner): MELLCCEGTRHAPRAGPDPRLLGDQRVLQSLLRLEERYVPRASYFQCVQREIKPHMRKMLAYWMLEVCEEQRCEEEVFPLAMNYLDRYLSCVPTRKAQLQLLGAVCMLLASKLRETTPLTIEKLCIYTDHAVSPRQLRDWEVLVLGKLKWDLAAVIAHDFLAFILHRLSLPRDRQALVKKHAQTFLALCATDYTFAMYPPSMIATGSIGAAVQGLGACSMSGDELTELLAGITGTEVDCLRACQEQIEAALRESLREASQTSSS
How it was run: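 The enzyme complex (5 nM), expressed in co-infected insect cells, was incubated with recombinant Rb fragment, 25 μM radiolabelled ATP and 2% DMSO at 30 °C. Reactions were stopped with EDTA after 20 minutes, or 60 minutes for tight-binding inhibitors. Apparent Ki values came from competitive inhibition fits.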

[3] = system: HCT-116 cell line; experiment: Inhibition of cell growth, tetrazolium salt (MTT) assay; type: cell-based; details: for HCT-116 % Inhibition at 0.25 μM: 0.25 μM compound; for pIC50: Homo sapiens, HCT-116, 120 h, MTT, three to five days, read-out: HCT-116 IC50
How it was run: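 McCoy's 5A cultures; 4 h pre-incubation; compound dilutions in 0.5% v/v DMSO; 3–5 d, 37° C, 5% CO2; MTT 0.2 mg/mL final, 4 h; formazan dissolved in DMSO, A540; vs 0.5% DMSO vehicle.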

[4] = 0.1 μM compound, HCT-116, Table 3
[5] = 0.1 μM compound, HCT-116, Table 4

Nc1nc(NC2CCN(C(=O)c3sc4ccccc4c3Cl)CC2)sc1C(=O)c1c(F)cccc1F [Example R31]
CDK2 % Inhibition at 0.03 μM ([1]; at 0.03 μM): 57%
CDK4 % Inhibition at 0.03 μM ([2]; at 0.03 μM): 60%
HCT-116 % Inhibition at 0.1 μM ([3]; HCT-116 cells, at 0.1 μM): 0%
HCT-116 5 Inhibition at 0.25 μM ([3]; HCT-116 cells): 42

Nc1nc(NC2CCN(C(=O)Nc3cccc(F)c3)CC2)sc1C(=O)c1c(F)cccc1F [Example O13]
CDK2 % Inhibition At 0.03 μM ([1]; 0.03 μM compound): 37%
CDK4 % Inhibition at 0.03 μM ([2]; 0.03 μM compound, Table 2): 8%
HCT-116 % Inhibition at 0.25 μM ([3]; HCT-116, Table 2): 22%

N#Cc1c(Cl)cccc1Oc1ccc(S(=O)(=O)N2CCC(Nc3nc(N)c(C(=O)c4c(F)cccc4F)s3)CC2)cc1 [Example P52]
CDK2 % Inhibition at 0.03 μM ([1]; 0.03 μM compound, Table 3): 49%
CDK4 % Inhibition at 0.03 μM ([2]; 0.03 μM compound, Table 3): 47%
HCT-116 % Inhibition at 0.1 μM [3, 4]: 16%
HCT-116 % Inhibition at 0.25 μM ([3]; HCT-116, Table 3): 22%

CC(=O)Nc1ccc(S(=O)(=O)N2CCC(Nc3nc(N)c(C(=O)c4c(F)cccc4F)s3)CC2)cc1 [Example F5, N-(4-{4-[4-Amino-5-(2,6-difluoro-benzoyl)-thiazol-2-ylamino]-piperidine-1-sulfonyl}-phenyl)-acetamide]
pKi [1]: > 9.00
pKi [2]: 9.00
pIC50 ([3]; first HCT-116 column (c4)): 6.30
pIC50 ([3]; second HCT-116 column (c5)): 5.89

Nc1nc(NC2CCN(C(=O)c3ccc(-c4ccccc4)cc3)CC2)sc1C(=O)c1c(F)cccc1F [Example Q32]
CDK2 % Inhibition at 0.03 μM ([1]; 0.03 μM compound, Table 4): −11%
CDK4 % Inhibition at 0.03 μM ([2]; 0.03 μM compound, Table 4): 15%
HCT-116 % Inhibition at 0.1 μM [3, 5]: 13%
HCT-116 % Inhibition at 0.25 μM ([3]; HCT-116, Table 4): 54%

Nc1nc(NC2CCN(C(=O)Cc3cccs3)CC2)sc1C(=O)c1c(F)cccc1F [Example Q65]
CDK2 % Inhibition at 0.03 μM ([1]; 0.03 μM compound, Table 4): 39%
CDK4 % Inhibition at 0.03 μM ([2]; 0.03 μM compound, Table 4): 31%
HCT-116 % Inhibition at 0.1 μM [3, 5]: 3%
HCT-116 % Inhibition at 0.25 μM ([3]; HCT-116, Table 4): 27%

COC(=O)CCc1ccc(S(=O)(=O)N2CCC(Nc3nc(N)c(C(=O)c4c(F)cccc4F)s3)CC2)cc1 [Example F46]
pKi [1]: 9.10
pKi [2]: 8.70
pIC50 ([3]; first HCT-116 column (c4)): 6.10
pIC50 ([3]; second HCT-116 column (c5)): < 5.30

Cn1cc(S(=O)(=O)N2CCC(Nc3nc(N)c(C(=O)c4c(F)cccc4F)s3)CC2)nc1Br [Example F48, {4-Amino-2-[1-(2-bromo-1-methyl-1H-imidazole-4-sulfonyl)-piperidin-4-ylamino]-thiazol-5-yl}-(2,6-difluoro-phenyl)-methanone]
pKi [1]: 8.12
inhibition at 0.05 µM [2]: 37%
pIC50 ([3]; first HCT-116 column (c4)): 5.49
pIC50 ([3]; second HCT-116 column (c5)): 5.30

Nc1nc(NC2CCN(S(=O)(=O)c3ccc(OCCNC4CC4)nc3)CC2)sc1C(=O)c1c(F)cccc1F [Example H21, (4-Amino-2-{1-[6-(2-cyclopropylamino-ethoxy)-3-sulfonyl]-piperidin-4-ylamino}-thiazol-5-yl)-(2,6-difluoro-phenyl)-methanone Hydrochloride Salt]
pKi [1]: 8.82
pKi [2]: 9.55
pIC50 ([3]; first HCT-116 column (c4)): 6.96
pIC50 ([3]; second HCT-116 column (c5)): 5.82

Nc1nc(NC2CCN(S(=O)(=O)CCCN3CCOCC3)CC2)sc1C(=O)c1c(F)cccc1F [Example K12, 1-(4-Amino-2-{1-[3-(morpholin-4-yl)propane-1-sulfonyl]-piperidin-4-ylamino}-thiazol-5-yl)-1-(2,6-difluoro-phenyl)-methanone.]
pKi [1]: 8.17
pKi [2]: 8.33
pIC50 ([3]; first HCT-116 column (c4)): 6.22
pIC50 ([3]; second HCT-116 column (c5)): 5.30

Cc1cccc(C(=O)N2CCC(Nc3nc(N)c(C(=O)c4c(F)cccc4F)s3)CC2)c1 [Example R140]
CDK2 % Inhibition at 0.03 μM ([1]; at 0.03 μM): 38%
CDK4 % Inhibition at 0.03 μM ([2]; at 0.03 μM): 69%
HCT-116 % Inhibition at 0.1 μM ([3]; HCT-116 cells, at 0.1 μM): 32%
HCT-116 5 Inhibition at 0.25 μM ([3]; HCT-116 cells): 78

CC1C=CC(C)N1CCS(=O)(=O)N1CCC(Nc2nc(N)c(C(=O)c3c(F)cccc3F)s2)CC1 (mixture of isomers) [Example K27, (4-Amino-2-{1-[2-(cis/trans-2,5-dimethyl-2,5-dihydro-pyrrol-1-yl)-ethanesulfonyl]-piperidin-4-ylamino}-thiazol-5-yl)-(2,6-difluoro-phenyl)-methanone Trifluoroacetic Acid Salt.]
pKi [1]: 7.96
pKi [2]: 8.46
pIC50 ([3]; first HCT-116 column (c4)): 6.64
pIC50 ([3]; second HCT-116 column (c5)): 6.10

Nc1nc(NC2CCN(S(=O)(=O)c3ccc(-c4ccccc4)cc3)CC2)sc1C(=O)c1c(F)cccc1F [Example P65]
CDK2 % Inhibition at 0.03 μM ([1]; 0.03 μM compound, Table 3): 48%
CDK4 % Inhibition at 0.03 μM ([2]; 0.03 μM compound, Table 3): 65%
HCT-116 % Inhibition at 0.1 μM [3, 4]: 6%
HCT-116 % Inhibition at 0.25 μM ([3]; HCT-116, Table 3): 31%

Nc1nc(NC2CCN(C(=O)c3ccncc3)CC2)sc1C(=O)c1c(F)cccc1F [Example C13]
pKi [1]: 7.28
pKi [2]: 7.74
pIC50 ([3]; first HCT-116 column (c4)): 5.55
pIC50 ([3]; second HCT-116 column (c5)): 5.30

CCOC(=O)C(CC(C)C)NC(=O)N1CCC(Nc2nc(N)c(C(=O)c3c(F)cccc3F)s2)CC1 (stereo not drawn) [Example O69]
CDK2 % Inhibition At 0.03 μM ([1]; 0.03 μM compound): 29%
CDK4 % Inhibition at 0.03 μM ([2]; 0.03 μM compound, Table 2): 5%
HCT-116 % Inhibition at 0.25 μM ([3]; HCT-116, Table 2): 51%

Nc1nc(NC2CCN(C(=O)Nc3ccc([N+](=O)[O-])cc3)CC2)sc1C(=O)c1c(F)cccc1F [Example O36]
CDK2 % Inhibition At 0.03 μM ([1]; 0.03 μM compound): 23%
CDK4 % Inhibition at 0.03 μM ([2]; 0.03 μM compound, Table 2): 12%
HCT-116 % Inhibition at 0.25 μM ([3]; HCT-116, Table 2): 28%

CN(CCS(=O)(=O)N1CCC(Nc2nc(N)c(C(=O)c3c(F)cccc3F)s2)CC1)C1CCCC1 [Example K30, (4-Amino-2-{1-[2-(cyclopentyl-methyl-amino)-ethanesulfonyl]-piperidin-4-ylamino}-thiazol-5-yl)-(2,6-difluoro-phenyl)-methanone Trifluoroacetic Acid Salt.]
pKi [1]: 8.03
pKi [2]: 8.62
pIC50 ([3]; first HCT-116 column (c4)): 6.72
pIC50 ([3]; second HCT-116 column (c5)): 6.21

Cc1cc(C)c(C(=O)N2CCC(Nc3nc(N)c(C(=O)c4c(F)cccc4F)s3)CC2)c(C)c1 [Example R127]
CDK2 % Inhibition at 0.03 μM ([1]; at 0.03 μM): 28%
CDK4 % Inhibition at 0.03 μM ([2]; at 0.03 μM): 20%
HCT-116 % Inhibition at 0.1 μM ([3]; HCT-116 cells, at 0.1 μM): 0%
HCT-116 5 Inhibition at 0.25 μM ([3]; HCT-116 cells): 36

CC1(C)CN(c2ccc(S(=O)(=O)N3CCC(Nc4nc(N)c(C(=O)c5c(F)cccc5F)s4)CC3)cc2)CCN1 [Example G31, 1-(4-Amino-2-{1-[4-(3,3-dimethyl-piperazin-1-yl)-benzenesulfonyl]-piperidin-4-ylamino}-thiazol-5-yl)-1-(2,6-difluoro-phenyl)-methanone]
pKi [1]: 9.09
pKi [2]: 9.28
pIC50 ([3]; first HCT-116 column (c4)): 6.96
pIC50 ([3]; second HCT-116 column (c5)): 5.82

CCSc1ncccc1C(=O)N1CCC(Nc2nc(N)c(C(=O)c3c(F)cccc3F)s2)CC1 [Example R19]
CDK2 % Inhibition at 0.03 μM ([1]; at 0.03 μM): 37%
CDK4 % Inhibition at 0.03 μM ([2]; at 0.03 μM): 54%
HCT-116 % Inhibition at 0.1 μM ([3]; HCT-116 cells, at 0.1 μM): 0%
HCT-116 5 Inhibition at 0.25 μM ([3]; HCT-116 cells): 46

CN1CCC[C@@H](COc2ccc(S(=O)(=O)N3CCC(Nc4nc(N)c(C(=O)c5c(F)cccc5F)s4)CC3)cn2)C1 (stereo in doubt) [Example H10, 1-(4-Amino-2-{1-[6-(1-methyl-piperidin-3R-ylmethoxy)-pyridine-3-sulfonyl]-piperidin-4-ylamino}-thiazol-5-yl)-1-(2,6-difluoro-phenyl)-methanone]
pKi [1]: 8.96
pKi [2]: 9.15
pIC50 ([3]; first HCT-116 column (c4)): 7.32
pIC50 ([3]; second HCT-116 column (c5)): < 6.30

CC(C)c1cc(C(C)C)c(S(=O)(=O)N2CCC(Nc3nc(N)c(C(=O)c4c(F)cccc4F)s3)CC2)c(C(C)C)c1 [Example P9]
CDK2 % Inhibition at 0.03 μM ([1]; 0.03 μM compound, Table 3): −17%
CDK4 % Inhibition at 0.03 μM ([2]; 0.03 μM compound, Table 3): 46%
HCT-116 % Inhibition at 0.1 μM [3, 4]: 13%
HCT-116 % Inhibition at 0.25 μM ([3]; HCT-116, Table 3): 35%

Nc1nc(NC2CCN(C(=O)CCc3ccccc3)CC2)sc1C(=O)c1c(F)cccc1F [Example Q48]
CDK2 % Inhibition at 0.03 μM ([1]; 0.03 μM compound, Table 4): 5%
CDK4 % Inhibition at 0.03 μM ([2]; 0.03 μM compound, Table 4): 48%
HCT-116 % Inhibition at 0.1 μM [3, 5]: 0%
HCT-116 % Inhibition at 0.25 μM ([3]; HCT-116, Table 4): 19%

CCc1cc(Br)ccc1S(=O)(=O)N1CCC(Nc2nc(N)c(C(=O)c3c(F)cccc3F)s2)CC1 [Example P78]
CDK2 % Inhibition at 0.03 μM ([1]; 0.03 μM compound, Table 3): 17%
CDK4 % Inhibition at 0.03 μM ([2]; 0.03 μM compound, Table 3): 24%
HCT-116 % Inhibition at 0.1 μM [3, 4]: 27%
HCT-116 % Inhibition at 0.25 μM ([3]; HCT-116, Table 3): 23%
